Experimental data published in US6630484B1 (priority 1996, dated 2003).
Entries after “also recorded” stand apart in the source; their conditions may differ.

Experiments:
[1] = target: T1, α-mannosidase from jack bean (Canavalia ensiformis, UniProt C0HJB3); assay: Screen for inhibition of α-mannosidase from jack bean; type: biochemical; conditions: for IC50: read-out: Concentration Required for 50% Inhibitions, α-Mannosidase (jack bean)
T1 sequence (C0HJB3 1-981): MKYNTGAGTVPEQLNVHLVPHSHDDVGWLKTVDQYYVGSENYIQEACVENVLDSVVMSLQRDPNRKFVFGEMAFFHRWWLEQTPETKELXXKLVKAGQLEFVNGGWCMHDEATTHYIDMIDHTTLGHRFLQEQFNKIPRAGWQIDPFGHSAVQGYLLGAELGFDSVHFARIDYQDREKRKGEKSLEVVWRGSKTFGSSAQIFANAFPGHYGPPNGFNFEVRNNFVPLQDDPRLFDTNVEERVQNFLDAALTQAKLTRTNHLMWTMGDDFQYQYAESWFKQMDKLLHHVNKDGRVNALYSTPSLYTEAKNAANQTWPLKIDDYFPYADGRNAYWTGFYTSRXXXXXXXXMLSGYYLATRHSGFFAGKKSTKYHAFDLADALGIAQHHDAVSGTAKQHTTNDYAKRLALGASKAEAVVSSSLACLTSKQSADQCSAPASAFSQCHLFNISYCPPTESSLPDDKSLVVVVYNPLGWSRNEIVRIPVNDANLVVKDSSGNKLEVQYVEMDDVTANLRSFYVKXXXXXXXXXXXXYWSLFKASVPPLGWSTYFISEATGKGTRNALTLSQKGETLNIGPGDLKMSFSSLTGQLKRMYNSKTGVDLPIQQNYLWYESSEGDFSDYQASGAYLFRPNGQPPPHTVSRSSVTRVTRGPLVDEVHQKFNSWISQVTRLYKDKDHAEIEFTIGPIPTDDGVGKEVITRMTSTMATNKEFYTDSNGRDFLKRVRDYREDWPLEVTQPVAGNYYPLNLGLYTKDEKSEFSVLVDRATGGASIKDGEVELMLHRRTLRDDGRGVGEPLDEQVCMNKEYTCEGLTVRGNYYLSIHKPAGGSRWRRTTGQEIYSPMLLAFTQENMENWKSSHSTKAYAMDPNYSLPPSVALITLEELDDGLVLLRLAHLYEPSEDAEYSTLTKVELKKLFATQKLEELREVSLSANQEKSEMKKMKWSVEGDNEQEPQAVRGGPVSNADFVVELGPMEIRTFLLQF

lysosomal mannosidase = target: T2, lysosomal mannosidase (Homo sapiens, UniProt O00754); assay: Selectivity for inhibition of α-mannosidase II vs. lysosomal mannosidase; type: biochemical; conditions: for ratio M/L (smaller is better): ratio of activities of α-Mannosidase II/lysosomal mannosidase
T2 sequence (O00754 50-1011): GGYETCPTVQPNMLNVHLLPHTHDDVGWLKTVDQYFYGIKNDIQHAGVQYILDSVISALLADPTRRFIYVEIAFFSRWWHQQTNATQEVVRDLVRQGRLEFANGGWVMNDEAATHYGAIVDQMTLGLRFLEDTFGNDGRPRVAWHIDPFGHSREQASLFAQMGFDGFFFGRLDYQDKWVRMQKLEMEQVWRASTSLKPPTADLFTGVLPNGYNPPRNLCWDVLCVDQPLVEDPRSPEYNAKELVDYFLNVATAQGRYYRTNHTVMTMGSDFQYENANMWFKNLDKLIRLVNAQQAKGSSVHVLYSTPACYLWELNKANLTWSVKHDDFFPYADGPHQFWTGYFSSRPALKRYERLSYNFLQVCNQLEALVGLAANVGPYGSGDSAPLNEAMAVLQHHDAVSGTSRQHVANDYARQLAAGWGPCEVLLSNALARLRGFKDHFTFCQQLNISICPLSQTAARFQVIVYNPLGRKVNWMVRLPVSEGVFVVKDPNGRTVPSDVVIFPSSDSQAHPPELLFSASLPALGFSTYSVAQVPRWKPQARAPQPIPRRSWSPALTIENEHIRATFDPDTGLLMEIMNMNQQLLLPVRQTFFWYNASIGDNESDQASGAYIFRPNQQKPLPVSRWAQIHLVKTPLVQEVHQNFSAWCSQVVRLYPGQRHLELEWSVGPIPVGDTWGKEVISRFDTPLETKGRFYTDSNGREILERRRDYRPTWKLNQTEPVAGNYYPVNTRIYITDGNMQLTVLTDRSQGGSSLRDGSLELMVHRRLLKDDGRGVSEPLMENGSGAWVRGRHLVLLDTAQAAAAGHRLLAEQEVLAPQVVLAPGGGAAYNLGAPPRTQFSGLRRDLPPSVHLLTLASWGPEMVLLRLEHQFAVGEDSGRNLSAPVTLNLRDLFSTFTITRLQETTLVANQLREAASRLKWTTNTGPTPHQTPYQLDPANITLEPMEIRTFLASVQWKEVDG

Golgi α-mannosidase II = target: T3, Golgi α-mannosidase II (Homo sapiens, UniProt Q16706); assay: Inhibition of the glycoprotein processing Golgi α-mannosidase II; type: biochemical
T3 sequence (Q16706 1-1144): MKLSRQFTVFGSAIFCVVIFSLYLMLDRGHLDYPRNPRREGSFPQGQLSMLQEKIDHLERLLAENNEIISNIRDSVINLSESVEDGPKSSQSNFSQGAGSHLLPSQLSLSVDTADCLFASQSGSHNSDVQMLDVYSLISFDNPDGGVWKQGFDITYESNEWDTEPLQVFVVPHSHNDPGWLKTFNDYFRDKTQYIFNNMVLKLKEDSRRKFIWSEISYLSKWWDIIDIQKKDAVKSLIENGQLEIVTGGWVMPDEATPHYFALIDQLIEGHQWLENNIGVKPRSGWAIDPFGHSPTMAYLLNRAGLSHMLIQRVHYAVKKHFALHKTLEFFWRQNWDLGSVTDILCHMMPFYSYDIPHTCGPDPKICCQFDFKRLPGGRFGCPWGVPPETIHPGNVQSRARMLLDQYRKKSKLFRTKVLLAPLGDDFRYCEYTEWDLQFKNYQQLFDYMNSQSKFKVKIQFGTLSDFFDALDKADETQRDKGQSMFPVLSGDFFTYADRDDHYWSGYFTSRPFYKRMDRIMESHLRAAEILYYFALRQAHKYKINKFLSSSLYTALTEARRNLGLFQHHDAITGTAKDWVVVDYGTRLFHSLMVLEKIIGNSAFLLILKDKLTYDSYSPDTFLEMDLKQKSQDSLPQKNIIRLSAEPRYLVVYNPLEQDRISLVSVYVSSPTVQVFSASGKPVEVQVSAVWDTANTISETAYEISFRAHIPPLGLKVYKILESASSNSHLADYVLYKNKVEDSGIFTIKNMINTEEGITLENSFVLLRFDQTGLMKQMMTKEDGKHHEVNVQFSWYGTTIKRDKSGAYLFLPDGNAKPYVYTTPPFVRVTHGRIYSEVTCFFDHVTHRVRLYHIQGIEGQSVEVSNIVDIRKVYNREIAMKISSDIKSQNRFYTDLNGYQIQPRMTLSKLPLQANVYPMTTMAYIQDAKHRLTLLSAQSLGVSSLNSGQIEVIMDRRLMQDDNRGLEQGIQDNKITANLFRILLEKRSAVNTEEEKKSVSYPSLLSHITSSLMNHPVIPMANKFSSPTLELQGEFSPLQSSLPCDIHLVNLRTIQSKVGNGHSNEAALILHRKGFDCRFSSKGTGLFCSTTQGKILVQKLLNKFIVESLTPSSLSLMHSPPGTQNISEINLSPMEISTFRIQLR

[2] = 50 to 550 μg/kg/day continuous i.v. infusion over 5 days, cited from earlier work
[3] = animals; cited from earlier work

SMILES | IC50 [1] [µM] | α-mannosidase (jack bean) inhibitory activity (in words) [1] | selectivity for inhibition of α-mannosidase II over lysosomal mannosidase (in words) (lysosomal mannosidase) | ratio M/L (smaller is better) (lysosomal mannosidase) | other results
CC1(C)OC2CN3CC[C@@H](CCOCc4ccccc4)[C@H](O)[C@H]3[C@@H]2O1 (stereo partly drawn) [Compound 55, (1S,2R,7R,8S,8aS)-7-[2-(Benzyloxy)ethyl]-8-hydroyx-1,2-O-isopropylidenedioxyindolizidine] | > 1000 |  |  |  | 
O[C@H]1[C@@H](CCOCc2ccccc2)CCN2C[C@@H](O)[C@@H](O)[C@H]12 [Compound 78, (1S,2R,7R,8S,8aS)-7-[2-(Benzyloxy)ethyl]-1,2,8-trihydroxyindolizidine] | > 1000 |  |  |  | 
CCCC[C@H]1CCN2C[C@@H](O)[C@@H](O)[C@@H]2[C@H]1O [Compound 77, (1S,2R,7S,8S,8aS)-7-Butyl-1,2,8-trihydroxyindolizidine] | > 1000 |  |  |  | 
O[C@H]1[C@H](CCOCc2ccccc2)CCN2C[C@@H](O)[C@@H](O)[C@H]12 [Compound 57, (1S,2R,7S,8S,8aS)-7-[2-(Benzyloxy)ethyl]-1,2,8-trihydroxyindolizidine] | > 1000 |  |  |  | 
O[C@@H]1[C@H](CCOCc2ccccc2)CCN2C[C@@H](O)[C@@H](O)[C@@H]12 [Compound 53, (1S,2R,7S,8R,8aR)-7-[2-(Benzyloxy)ethyl]-1,2,8-trihydroxyindolizidine] | 890 | weak inhibitor |  |  | 
CCCC[C@@H]1CCN2C[C@@H](O)[C@@H](O)[C@@H]2[C@H]1O [Compound 56, (1S,2R,7R,8S,8aS)-7-Butyl-1,2,8-trihydroxyindolizidine] | > 1000 |  |  |  | 
CC[C@H]1C[C@@H](O)[C@@H]2[C@H](O)[C@H](O)CN2C1 [Compound 24, (1S,2R,6S,8R,8aR)-6-Ethyl-1,2,8-trihydroxyindolizidine] | 30 | highest degree of inhibitory activity | increased selectivity | 0.2 | 
O[C@H]1[C@H]2[C@H](O)CCCN2C[C@H]1O [Compound 1, swainsonine] |  |  |  |  | inhibition of α-mannosidase II (in words) (Golgi α-mannosidase II): potent inhibitor; toxicity observed in patients ([2]; repeated at 28 day intervals): Moderate toxicity; Serum half-life ([2]; patients with advanced malignancies): 12 h; preclinical toxicity [3]: low preclinical toxicity
O[C@H]1[C@H]2[C@H](O)C[C@@H](CCOCc3ccccc3)CN2C[C@H]1O [Compound 27, (1S,2R,6R,8R,8aR)-6-[2-(Benzyloxy)ethyl]-1,2,8-trihydroxyindolizidine] | 275 | significant decrease in activity |  |  | 
CC[C@@H]1C[C@@H](O)[C@@H]2[C@H](O)[C@H](O)CN2C1 [Compound 26, (1S,2R,6R,8R,8aR)-6-Ethyl-1,2,8-trihydroxyindolizidine] | 230 | highest degree of inhibitory activity; also recorded: significant decrease in activity | increased selectivity | 0.47 | 
O[C@H]1[C@H]2[C@H](O)C[C@H](CCOCc3ccccc3)CN2C[C@H]1O [Compound 25, (1S,2R,6S,8R,8aR)-6-[2-(Benzyloxy)ethyl]-1,2,8-trihydroxyindolizidine] | 70 | slight decrease in inhibitory activity | increased selectivity | 0.33 | 
CCCC[C@@H]1CCN2C[C@@H](O)[C@@H](O)[C@H]2[C@@H]1O [Compound 52, (1S,2R,7R,8R,8aR)-7-Butyl-1,2,8-trihydroxyindolizidine] | > 1000 |  | increased selectivity | 0.02 | melting point: 156 °C; selectivity for inhibition of α-mannosidase II over lysosomal mannosidase (lysosomal mannosidase): 50 fold
CCCC[C@@H]1CCN2CC3OC(C)(C)O[C@H]3[C@@H]2[C@H]1O (stereo partly drawn) [Compound 54, (1S,2R,7R,8S,8aS)-7-Butyl-8-hydroxy-1,2-O-isopropylidenedioxyindolizidine] | > 1000 |  |  |  | 
